The results in this text go back to the SangsterLogP compilation.

Broadly, the logP is the decadic logarithm of the partition coefficient of the neutral form, usually between octanol and water. In the case of `CC(C)[C@H](C(=O)NO)N(Cc1cccnc1)S(=O)(=O)c1ccccc1Cl`, the logP worked out at 1.45.

For `CC(C)C(C(=O)NO)N(Cc1cccnc1)S(=O)(=O)c1ccccc1Br` (configuration not stated), the log partition coefficient (logP) was found to be 1.54.

`CC(C)[C@H](C(=O)NO)N(Cc1cccnc1)S(=O)(=O)c1cccc(Br)c1` returned a log partition coefficient (logP) of 1.92.

Turning to `CONC(=O)[C@@H](C(C)C)N(Cc1cccnc1)S(=O)(=O)c1cccc(Cl)c1`, the logP was found to be 2.38.

Take `CONC(=O)[C@@H](C(C)C)N(Cc1cccnc1)S(=O)(=O)c1ccccc1Br`: the logP was 3.34.

The molecule `CC(C)[C@H](C(=O)NO)N(Cc1cccnc1)S(=O)(=O)c1ccc(I)cc1` yielded a log partition coefficient (logP) of 2.45.

In turn, `CONC(=O)C(C(C)C)N(Cc1cccnc1)S(=O)(=O)c1ccc(I)cc1` (configuration not stated) displayed a logP of 3.11.

As to `CC(C)C(C(=O)NO)N(Cc1cccnc1)S(=O)(=O)c1ccc(Br)cc1` (configuration not stated), the lipophilicity (logP) was 1.91.

Regarding `CONC(=O)[C@@H](C(C)C)N(Cc1cccnc1)S(=O)(=O)c1ccc(Br)cc1`, the logP was 2.51.

Turning to `CONC(=O)[C@@H](C(C)C)N(Cc1cccnc1)S(=O)(=O)c1ccc(F)cc1`, the logP stood at 2.

The molecule `CONC(=O)[C@@H](C(C)C)N(Cc1cccnc1)S(=O)(=O)c1ccc(Cl)cc1` came in with a lipophilicity (logP) of 2.4.

`CONC(=O)[C@@H](C(C)C)N(Cc1cccnc1)S(=O)(=O)c1ccccc1F` registered a logP of 2.67.

With `CC(C)[C@H](C(=O)NO)N(Cc1cccnc1)S(=O)(=O)c1ccc(Cl)cc1`, the log partition coefficient (logP) is 1.81.

As to `CC(C)[C@H](C(=O)NO)N(Cc1cccnc1)S(=O)(=O)c1cccc(Cl)c1`, the lipophilicity (logP) came out at 1.82. This logP and that of the molecule before are within 0.2 log units of each other.

Consider `CC(C)[C@H](C(=O)NO)N(Cc1cccnc1)S(=O)(=O)c1ccc(F)cc1`, for which the lipophilicity (logP) is 1.4.

As for `CONC(=O)[C@@H](C(C)C)N(Cc1cccnc1)S(=O)(=O)c1ccccc1Cl`, the logP was found to be 2.01.

`CC(C)[C@H](C(=O)NO)N(Cc1cccnc1)S(=O)(=O)c1ccccc1F`: the logP is 1.65.
